{"source": "paper PMC10162847", "about": "(Phytomedicine, 2023)", "system": "SARS-CoV-2 RBD^WT and mutant proteins on HEK293-hACE2-EGFP cells", "format": "cell-based, human"}
{"molecule": "O=c1c(O)c(-c2cc(O)c(O)c(O)c2)oc2cc(O)cc(O)c12", "note": "[myricetin, 3,5,7-trihydroxy-2-(3,4,5-tri hydroxyphenyl)-4-benzopyrone]", "values": [{"measurement": "binding of SARS-CoV-2 S protein to HEK293-hACE2-EGFP cell membranes", "value": "blocked"}]}
